The values that follow come from patent publication US10512634B2, “Benzimidazole derivates useful as inhibitors of mammalian histone deacetylase activity” (KANCERA AB, priority 2015, dated 2019).

One assay has as its target HDAC6 (Homo sapiens (Human), UniProt Q9UBN7). The assay can be described thus: HDAC in vitro enzymatic assay (fluorescence). Type of assay: biochemical. As to conditions: top concentration 2 μM. As for the experimental part: Biological Tests Method for Measurement of Enzymatic Activity of HDACs Materials & Methods
All Examples were tested in HDAC1, 2, 3, 6 and 8 in vitro enzymatic assays. The assay principle is well known (Hauser et al. 2009, Bradner et al. 2010) and all necessary reagents like enzymes, substrates, developer and reference compounds are commercially available (see e.g. BPS Biosciences http://www.bpsbioscience.com/). A series of dilutions of the compounds were prepared with a top concentration of 200 μM (2 μM for HDAC6). The enzymatic reactions were conducted in a mixture containing assay buffer, bovine serum albumin, HDAC substrate, and a test compound. After enzymatic reaction, developer was added and after an additional incubation time, fluorescence intensity was measured at an excitation wavelength of 360 nm and an emission wavelength of 460 nm. A selection of the Examples were tested in a full HDAC panel containing HDAC1, 2, 3, 4, 5, 6, 7, 8, 9, 10 and 11 in vitro enzymatic assays. The tests were performed as above except that a series of dilutions of the compounds were prepared with a top concentration of 10 μM for all HDACs.

In a further assay the target is HDAC1 (Homo sapiens (Human), UniProt Q13547). The assay can be described thus: HDAC in vitro enzymatic assay (fluorescence). As to conditions: read-out: IC50 HDAC1; selectivity profiling; top concentration 200 μM.
The next assay deals with HDAC8 (Homo sapiens (Human), UniProt Q9BY41). The assay can be described thus: HDAC in vitro enzymatic assay (fluorescence). As to conditions: read-out: IC50 HDAC8; selectivity profiling; top concentration 200 μM.
A further assay addresses HDAC3 (Homo sapiens (Human), UniProt O15379). The assay can be described thus: HDAC in vitro enzymatic assay (fluorescence). Particulars: read-out: IC50 HDAC3; selectivity profiling; top concentration 200 μM.
Another assay has as its target HDAC2 (Homo sapiens (Human), UniProt Q92769). Description: HDAC in vitro enzymatic assay (fluorescence). Particulars: read-out: IC50 HDAC2; selectivity profiling; top concentration 200 μM.
The test system of the next assay is U266 (multiple myelom). Description: CellTiter-Blue cell viability assay. It is filed as cell-based. Particulars: Homo sapiens, U-266; U266 cells, 72 hours of treatment; read-out: IC50 U266 (cell viability). The protocol: (§1) Method for Measurement of Cell Viability
(§2) The CellTiter-Blue® Cell Viability Assay (Promega) provides a homogeneous, fluorometric method for estimating the number of viable cells present in multi-well plates. The assay uses the indicator dye resazurin to measure the metabolic capacity of cells. Viable cells retain the ability to reduce resazurin into resorufin, which is highly fluorescent.
(§3) Stock solutions (10 mM in DMSO) of compounds were serially diluted 1:2 in 11 concentrations. 50 nL/well (10 mM compound stock in DMSO) was acoustically dispensed in 384-well assay plates with an acoustic dispenser (EDC Biosystems ATS-100AV). Final starting concentration in the assay was 20 μM (0.2% DMSO) for test compounds. […] After 72 hours, Celltiter Blue reagent (Promega #G8081) was diluted 1:10 with PBS and then added to wells (5 μL/well). The plates were incubated for 2 hours following addition of reagent. […] Results were calculated as % cell viability compared to background (cells treated with 0.2% DMSO).

Another assay has as its system AMO-1 (plasmacytom). Description: CellTiter-Blue cell viability assay. As to conditions: Homo sapiens, AMO1; AMO-1 cells, 72 hours of treatment; read-out: IC50 AMO-1 (cell viability). It is filed as cell-based. As for the experimental part: as §1, §2, §3
(The colour change of resazurin is a common sign of viable cells or microbes.)

Assay [1] concerns PBMC (peripheral blood mononuclear cells from healthy donors). The assay can be described thus: CellTiter-Blue cell viability assay. Type of assay: cell-based. As to conditions: healthy PBMC, 72 hours of treatment; read-out: IC50 healthy PBMC (cell viability). As for the experimental part:
as §1, §2, §3

Where [2] appears, read: read-out: IC50 values for inhibition of HDAC6.
Where [3] appears, read: selectivity profiling, read-out: IC50 HDAC6.

Structures can show the parent of a compound that is named as a salt. Where two headings read alike, the source gives them in different places. A value given as a limit tells only on which side of the number the result lay.

Sequence of HDAC1 (Q13547 whole entry): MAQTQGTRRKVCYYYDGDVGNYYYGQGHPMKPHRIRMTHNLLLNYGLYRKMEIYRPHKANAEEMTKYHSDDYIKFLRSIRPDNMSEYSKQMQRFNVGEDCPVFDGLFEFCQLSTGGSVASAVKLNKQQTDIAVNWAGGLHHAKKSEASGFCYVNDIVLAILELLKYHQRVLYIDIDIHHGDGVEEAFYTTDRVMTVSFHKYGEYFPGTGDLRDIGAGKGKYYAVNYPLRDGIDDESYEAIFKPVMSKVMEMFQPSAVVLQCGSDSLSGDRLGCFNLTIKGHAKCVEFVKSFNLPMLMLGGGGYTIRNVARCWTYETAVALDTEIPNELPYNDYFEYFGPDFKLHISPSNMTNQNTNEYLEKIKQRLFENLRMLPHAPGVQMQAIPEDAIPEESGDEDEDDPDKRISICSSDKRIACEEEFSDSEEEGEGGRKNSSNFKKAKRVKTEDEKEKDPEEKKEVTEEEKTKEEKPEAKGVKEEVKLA
Sequence of HDAC2 (Q92769 whole entry): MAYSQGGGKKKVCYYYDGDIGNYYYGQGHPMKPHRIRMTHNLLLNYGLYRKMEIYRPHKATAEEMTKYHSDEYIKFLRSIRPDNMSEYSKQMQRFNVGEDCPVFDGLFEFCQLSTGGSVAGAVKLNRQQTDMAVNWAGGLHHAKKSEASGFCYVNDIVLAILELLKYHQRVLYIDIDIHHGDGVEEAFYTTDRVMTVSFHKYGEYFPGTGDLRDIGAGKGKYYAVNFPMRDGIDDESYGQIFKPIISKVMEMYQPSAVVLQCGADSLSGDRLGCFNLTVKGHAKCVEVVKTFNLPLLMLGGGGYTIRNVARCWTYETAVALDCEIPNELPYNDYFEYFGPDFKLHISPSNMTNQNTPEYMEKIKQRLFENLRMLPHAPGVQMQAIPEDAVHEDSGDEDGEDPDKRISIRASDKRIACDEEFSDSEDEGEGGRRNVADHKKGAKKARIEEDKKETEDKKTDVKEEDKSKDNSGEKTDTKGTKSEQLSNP
Sequence of HDAC8 (Q9BY41 whole entry): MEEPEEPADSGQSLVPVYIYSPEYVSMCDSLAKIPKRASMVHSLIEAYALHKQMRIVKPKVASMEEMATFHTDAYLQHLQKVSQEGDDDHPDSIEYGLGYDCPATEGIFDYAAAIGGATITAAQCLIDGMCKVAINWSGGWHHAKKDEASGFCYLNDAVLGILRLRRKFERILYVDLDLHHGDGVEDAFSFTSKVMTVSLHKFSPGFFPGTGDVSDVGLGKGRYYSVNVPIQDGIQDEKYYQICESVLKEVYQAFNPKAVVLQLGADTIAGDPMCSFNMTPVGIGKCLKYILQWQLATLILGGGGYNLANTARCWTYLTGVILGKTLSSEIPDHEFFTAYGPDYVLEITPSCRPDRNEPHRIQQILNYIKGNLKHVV
Sequence of HDAC3 (O15379 whole entry): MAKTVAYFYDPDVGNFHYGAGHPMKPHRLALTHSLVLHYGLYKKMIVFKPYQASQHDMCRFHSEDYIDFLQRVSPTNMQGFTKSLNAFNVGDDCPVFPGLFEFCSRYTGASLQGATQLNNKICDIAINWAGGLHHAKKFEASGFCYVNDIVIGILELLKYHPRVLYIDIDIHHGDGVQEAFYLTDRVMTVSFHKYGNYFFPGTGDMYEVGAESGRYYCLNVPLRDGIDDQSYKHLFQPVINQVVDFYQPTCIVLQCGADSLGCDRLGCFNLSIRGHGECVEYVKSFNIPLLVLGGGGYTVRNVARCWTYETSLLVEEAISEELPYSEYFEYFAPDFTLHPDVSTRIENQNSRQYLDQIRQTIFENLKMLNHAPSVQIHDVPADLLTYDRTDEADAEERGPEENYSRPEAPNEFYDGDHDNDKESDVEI
Sequence of HDAC3 (Q9Y618 395-489 partner): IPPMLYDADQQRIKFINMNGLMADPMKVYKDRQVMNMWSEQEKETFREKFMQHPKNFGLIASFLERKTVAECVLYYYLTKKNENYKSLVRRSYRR

For the molecule `O=C(NO)c1ccc2nc(-c3ccc4c(c3)OCCO4)[nH]c2c1` [Example 11, 2-(2,3-dihydro-1,4-benzodioxin-6-yl)-N-hydroxy-1H-benzimidazole-6-carboxamide], on HDAC6 (setting [2]), the IC50 (commonly the concentration needed to halve the response being measured) came to 110 nM.
Take `O=C(NO)c1ccc2nc(-c3ccnc4ccccc34)[nH]c2c1` [Example 66, N-hydroxy-2-quinolin-4-yl-1H-benzimidazole-6-carboxamide trifluoroacetate]: the IC50 at HDAC6 (setting [2]) is 14 nM.
As to `C#Cc1ccc(-c2nc3ccc(C(=O)NO)cc3[nH]2)cc1` [Example 80, 2-(4-ethynylphenyl)-N-hydroxy-1H-benzimidazole-6-carboxamide], the half-inhibitory concentration (IC50) on HDAC6 (setting [2]) worked out at 19 nM.
In the case of `COc1cccc(-c2nc3ccc(C(=O)NO)cc3[nH]2)c1O` [Example 85, N-hydroxy-2-(2-hydroxy-3-methoxyphenyl)-1H-benzimidazole-6-carboxamide], the IC50 on HDAC6 (setting [2]) was found to be 13 nM.
Regarding `O=C(NO)c1ccc2nc(-c3ccc4c(c3)CCO4)[nH]c2c1` [Example 96, 2-(2,3-dihydro-1-benzofuran-5-yl)-N-hydroxy-1H-benzimidazole-6-carboxamide], the IC50 at HDAC1 turned out to be 5000 nM; at HDAC6 (setting [3]), 5.2 nM; at HDAC6 (setting [2]), 5.2 nM; on HDAC8 it was 220 nM; on HDAC3, 1300 nM; at HDAC2, 58000 nM.
On to `CC(C)Oc1ccc(-c2nc3ccc(C(=O)NO)cc3[nH]2)cc1` [Example 97, N-hydroxy-2-[4-(1-methylethoxy)phenyl]-1H-benzimidazole-6-carboxamide], for which the IC50 on HDAC1 amounted to 5700 nM; on HDAC6 (setting [3]), 12 nM; at HDAC6 (setting [2]), 12 nM; at HDAC8, 260 nM; on HDAC3 it was 2400 nM; at HDAC2, 33000 nM.
In the case of `O=C(NO)c1ccc2nc(-c3cccs3)[nH]c2c1` [Example 98, N-hydroxy-2-thiophen-2-yl-1H-benzimidazole-6-carboxamide], the IC50 stood at 4400 nM on HDAC1; 7 nM at HDAC6 (setting [3]); 7 nM on HDAC6 (setting [2]); 290 nM on HDAC8; 1900 nM on HDAC3; 24000 nM at HDAC2.
For `CCc1ccc(-c2nc3ccc(C(=O)NO)cc3[nH]2)cc1` [Example 109, 2-(4-ethylphenyl)-N-hydroxy-1H-benzimidazole-6-carboxamide], the IC50 on HDAC1 was 6500 nM; at HDAC6 (setting [3]), 46 nM; on HDAC6 (setting [2]), 46 nM; at HDAC8, 1200 nM; at HDAC3, 2200 nM; at HDAC2, 165000 nM.
Consider `Cn1c(-c2nc3ccc(C(=O)NO)cc3[nH]2)cc2ccccc21` [Example 112, N-hydroxy-2-(1-methyl-1H-indol-2-yl)-1H-benzimidazole-6-carboxamide], for which the IC50 on HDAC6 (setting [2]) came out at 15 nM.
As for `COc1ccc(Oc2cccc(-c3nc4ccc(C(=O)NO)cc4[nH]3)c2)cc1` [Example 113, N-hydroxy-2-[3-(4-methoxyphenoxy)phenyl]-1H-benzimidazole-6-carboxamide], the IC50 at HDAC6 (setting [2]) was 6.6 nM.
For the molecule `O=C(NO)c1ccc2nc(-c3ccccc3-c3ccccc3)[nH]c2c1` [Example 119, 2-biphenyl-2-yl-N-hydroxy-1H-benzimidazole-6-carboxamide], the IC50 on HDAC1 is 4000 nM; on HDAC6 (setting [3]), 14 nM; on HDAC6 (setting [2]), 14 nM; at HDAC8 it was 710 nM; at HDAC3 it was 2800 nM; on HDAC2 it was 29000 nM.
Regarding `CCN(CC)CCOc1ccc(-c2nc3ccc(C(=O)NO)cc3[nH]2)cc1` [Example 125, 2-{4-[2-(diethylamino)ethoxy]phenyl}-N-hydroxy-1H-benzimidazole-6-carboxamide], the IC50 at HDAC6 (setting [2]) is 14 nM.
Turning to `O=C(NO)c1ccc2nc(-c3cccc(OCCOc4ccccc4)c3)[nH]c2c1` [Example 134, N-hydroxy-2-[3-(2-phenoxyethoxy)phenyl]-1H-benzimidazole-6-carboxamide], the IC50 on HDAC6 (setting [2]) was determined as 18 nM.
For the molecule `O=C(NO)c1ccc2nc(-c3ccc(-c4ccccc4F)cc3)[nH]c2c1` [Example 167, 2-(2′-fluorobiphenyl-4-yl)-N-hydroxy-1H-benzimidazole-6-carboxamide], the IC50 on HDAC6 (setting [2]) is 19 nM; with U266 (multiple myelom) it was 160 nM; in the assay with AMO-1 (plasmacytom), 140 nM; in assay [1], more than 20000 nM.
For the molecule `COc1ccc(-c2ccc(-c3nc4ccc(C(=O)NO)cc4[nH]3)o2)cc1OC` [Example 174, 2-[5-(3,4-dimethoxyphenyl)furan-2-yl]-N-hydroxy-1H-benzimidazole-6-carboxamide], the IC50 at HDAC6 (setting [2]) turned out to be 4.7 nM.
In the case of `O=C(NO)c1ccc2nc(-c3ccc(-c4ccccc4F)s3)[nH]c2c1` [Example 176, 2-[5-(2-fluorophenyl)thiophen-2-yl]-N-hydroxy-1H-benzimidazole-6-carboxamide], the IC50 on HDAC6 (setting [2]) worked out at 2.9 nM.
Still for that read-out and setting: then `O=C(NO)c1ccc2nc(-c3ccc(-c4ccccc4)s3)[nH]c2c1` [Example 179, N-hydroxy-2-(5-phenylthiophen-2-yl)-1H-benzimidazole-6-carboxamide], with 3.1 nM.
For the molecule `O=C(NO)c1ccc2nc(-c3ccc(-c4ccccc4)c(F)c3)[nH]c2c1` [Example 180, 2-(2-fluorobiphenyl-4-yl)-N-hydroxy-1H-benzimidazole-6-carboxamide], the IC50 in the assay with U266 (multiple myelom) was 560 nM; in the assay on AMO-1 (plasmacytom), 420 nM; in assay [1] it was more than 20000 nM.
For the molecule `O=C(NO)c1ccc2nc(-c3ccc(-c4cccc(CN5CCCCC5)c4)cc3)[nH]c2c1` [Example 186, N-hydroxy-2-[3′-(piperidin-1-ylmethyl)biphenyl-4-yl]-1H-benzimidazole-6-carboxamide trifluoroacetate], at HDAC6 (setting [2]), the IC50 amounted to 4.1 nM.
Take `COCCCNCc1ccc(-c2ccc(-c3nc4ccc(C(=O)NO)cc4[nH]3)cc2)cc1` [Example 191, N-hydroxy-2-(4′-{[(3-methoxypropyl)amino]methyl}biphenyl-4-yl)-1H-benzimidazole-6-carboxamide trifluoroacetate]: the IC50 on HDAC6 (setting [2]) came out at 18 nM.
Take `O=C(NO)c1ccc2nc(-c3ccc(-c4ccc(/C=N/O)cc4)cc3)[nH]c2c1` [Example 193, N-hydroxy-2-{4′-[(E)-(hydroxyimino)methyl]biphenyl-4-yl}-1H-benzimidazole-6-carboxamide]: at HDAC6 (setting [2]), the IC50 worked out at 11 nM.
Take `CN(C)C(=O)c1cccc(-c2ccc(-c3nc4ccc(C(=O)NO)cc4[nH]3)cc2)c1` [Example 195, 2-[3′-(dimethylcarbamoyl)biphenyl-4-yl]-N-hydroxy-1H-benzimidazole-6-carboxamide]: the IC50 on HDAC6 (setting [2]) came out at 24 nM.
Still for that read-out and setting: as for `O=C(NO)c1ccc2nc(-c3ccc(-c4ccc(CN5CCCC5)cc4)cc3)[nH]c2c1` [Example 197, N-hydroxy-2-[4′-(pyrrolidin-1-ylmethyl)biphenyl-4-yl]-1H-benzimidazole-6-carboxamide trifluoroacetate], the figure is 3.6 nM; as for `C[C@@H]1CN(Cc2ccc(-c3ccc(-c4nc5ccc(C(=O)NO)cc5[nH]4)cc3)cc2)C[C@H](C)O1` [Example 201, 2-(4′-{cis)-2,6-dimethylmorpholin-4-yl]methyl}biphenyl-4-yl)-N-hydroxy-1H-benzimidazole-6-carboxamide trifluoroacetate], 13 nM; as for `CS(=O)(=O)Nc1ccc(-c2ccc(-c3nc4ccc(C(=O)NO)cc4[nH]3)cc2)cc1` [Example 204, N-hydroxy-2-{4′-[(methylsulfonyl)amino]biphenyl-4-yl}-1H-benzimidazole-6-carboxamide], 7.2 nM.
